Data: patent publication US9771341B2, “Piperazine carbamates and methods of making and using same” (Abide Therapeutics, Inc., priority 2015, dated 2017)

Tests used:
MAGL [1] = target: T1, MAGL (Mus musculus, UniProt O35678); test: In vitro competitive activity-based protein profiling (mouse), MAGL; assay type: biochemical; details: for inhibition at 1 µM: mouse proteome, in vitro, read-out: % Inhibition at 1 μM MAGL; for IC50: mouse brain membrane fraction or cell lysates, 30 min preincubation at 37° C, FP-Rh probe
T1 construct: Proteomes (mouse brain membrane fraction or cell lysates); from tissue; host or cells: mouse brain membrane fraction (or unspecified cell lysates)
T1 sequence (O35678 1-303): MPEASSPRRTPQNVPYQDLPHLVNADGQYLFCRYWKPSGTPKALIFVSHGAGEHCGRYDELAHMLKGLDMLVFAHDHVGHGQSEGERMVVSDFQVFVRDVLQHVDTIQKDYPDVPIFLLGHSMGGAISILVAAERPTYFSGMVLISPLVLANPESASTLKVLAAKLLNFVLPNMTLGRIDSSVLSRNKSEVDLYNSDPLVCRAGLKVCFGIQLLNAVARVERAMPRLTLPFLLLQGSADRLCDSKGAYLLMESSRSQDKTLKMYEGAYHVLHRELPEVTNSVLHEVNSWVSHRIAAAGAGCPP
Procedure: (§1) In Vitro Competitive Activity-Based Protein Profiling (Mouse).
(§2) Proteomes (mouse brain membrane fraction or cell lysates) (50 μL, 1.0 mg/mL total protein concentration) were preincubated with varying concentrations of inhibitors at 37° C. After 30 min, FP-Rh (1.0 μL, 50 μM in DMSO) was added and the mixture was incubated for another 30 min at 37° C. Reactions were quenched with SDS loading buffer (50 μL-4×) and run on SDS-PAGE.

FAAH [2] = target: T2, FAAH (Mus musculus, UniProt O08914); test: In vitro competitive activity-based protein profiling (mouse), FAAH; assay type: biochemical; details: for inhibition at 1 µM: mouse proteome, in vitro; for IC50: mouse brain membrane fraction or cell lysates, 30 min preincubation at 37° C, FP-Rh probe
T2 construct: Proteomes (mouse brain membrane fraction or cell lysates); from tissue; host or cells: mouse brain membrane fraction (or unspecified cell lysates)
T2 sequence (O08914 1-579): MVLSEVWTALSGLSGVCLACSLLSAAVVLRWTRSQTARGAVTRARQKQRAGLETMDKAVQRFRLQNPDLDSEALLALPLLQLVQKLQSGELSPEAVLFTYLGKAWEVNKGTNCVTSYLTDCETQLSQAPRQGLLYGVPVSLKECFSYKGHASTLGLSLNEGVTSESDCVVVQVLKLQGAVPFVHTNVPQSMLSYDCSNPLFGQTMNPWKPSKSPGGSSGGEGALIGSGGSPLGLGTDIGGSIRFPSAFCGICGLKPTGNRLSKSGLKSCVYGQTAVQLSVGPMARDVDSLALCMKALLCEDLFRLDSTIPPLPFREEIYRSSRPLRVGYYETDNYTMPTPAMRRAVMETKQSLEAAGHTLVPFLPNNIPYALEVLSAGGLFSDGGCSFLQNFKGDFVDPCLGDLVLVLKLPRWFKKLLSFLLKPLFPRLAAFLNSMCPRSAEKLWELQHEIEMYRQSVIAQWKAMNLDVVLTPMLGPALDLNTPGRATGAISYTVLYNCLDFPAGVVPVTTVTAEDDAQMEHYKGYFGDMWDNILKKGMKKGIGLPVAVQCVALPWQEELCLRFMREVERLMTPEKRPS
Method in brief: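 Mouse brain membrane fraction or cell lysates (1.0 mg/mL protein) preincubated with inhibitors 30 min at 37° C, then FP-Rh probe 30 min at 37° C. SDS-PAGE fluorescence band intensity gave FAAH activity.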

ABHD6 [3] = target: T3, ABHD6 (Mus musculus, UniProt Q8R2Y0); test: In vitro competitive activity-based protein profiling (mouse), ABHD6; assay type: biochemical; details: for inhibition at 1 µM: mouse proteome, in vitro, read-out: % Inhibition at 1 μM ABHD6; for IC50: mouse brain membrane fraction or cell lysates, 30 min preincubation at 37° C, FP-Rh probe
T3 construct: Proteomes (mouse brain membrane fraction or cell lysates); from tissue; host or cells: mouse brain membrane fraction (or unspecified cell lysates)
T3 sequence (Q8R2Y0 1-336): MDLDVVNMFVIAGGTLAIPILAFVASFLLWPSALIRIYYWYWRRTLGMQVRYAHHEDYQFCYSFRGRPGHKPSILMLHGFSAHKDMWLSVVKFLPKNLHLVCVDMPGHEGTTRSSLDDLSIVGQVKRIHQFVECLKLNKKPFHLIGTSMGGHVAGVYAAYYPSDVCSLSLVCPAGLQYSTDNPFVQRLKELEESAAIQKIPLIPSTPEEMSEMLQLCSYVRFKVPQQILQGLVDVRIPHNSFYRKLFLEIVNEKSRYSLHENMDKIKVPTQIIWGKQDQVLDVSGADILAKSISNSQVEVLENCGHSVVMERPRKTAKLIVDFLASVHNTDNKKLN
Procedure: as §1, §2

MAGL [4] = target: T1, MAGL; test: Mouse brain proteomes from inhibitor treated mice, MAGL; assay type: in vivo; details: 5 mg/kg oral gavage, C57Bl/6J mice, brain proteome 4 h after administration
Procedure: (§3) Preparation of Mouse Brain Proteomes from Inhibitor Treated Mice.
(§4) Inhibitors were administered to wild-type C57Bl/6J by oral gavage in a vehicle of polyethylene glycol.

FAAH [5] = target: T2, FAAH; test: Mouse brain proteomes from inhibitor treated mice, FAAH; assay type: in vivo; details: 5 mg/kg oral gavage, C57Bl/6J mice, brain proteome 4 h after administration
Procedure: as §3
Inhibitors were administered to wild-type C57Bl/6J by oral gavage in a vehicle of polyethylene glycol. Each animal was sacrificed 4 h following administration and brain proteomes were prepared and analyzed according to previously established methods (See Niphakis, M. J., et al. (2011) ACS Chem. Neurosci. and Long, J. Z., et al. Nat. Chem. Biol. 5:37-44)

ABHD6 [6] = target: T3, ABHD6; test: Mouse brain proteomes from inhibitor treated mice, ABHD6; assay type: in vivo; details: 5 mg/kg oral gavage, C57Bl/6J mice, brain proteome 4 h after administration
Procedure: as §3, §4

SMILES	inhibition at 1 µM (MAGL [1])	IC50 (MAGL [1])	inhibition at 1 µM (FAAH [2])	IC50 (FAAH [2])	inhibition at 1 µM (ABHD6 [3])	IC50 (ABHD6 [3])	inhibition at 5 mg/kg (MAGL [4])	inhibition at 5 mg/kg (FAAH [5])	inhibition at 5 mg/kg (ABHD6 [6])
O=C(OC(C(F)(F)F)C(F)(F)F)N1CCN(Cc2ccc(Cl)cc2N2CC[C@@H](N3CCCCC3=O)C2)CC1 [Example 43, 1,1,1,3,3,3-hexafluoropropan-2-yl (R)-4-(4-chloro-2-(3-(2-oxopiperidin-1-yl)pyrrolidin-1-yl)benzyl)piperazine-1-carboxylate]	> 75%	< 100 nM	< 25%	> 1000 nM	< 25%	> 1000 nM	25 to 75%	< 25%	< 25%
O=C(OC(C(F)(F)F)C(F)(F)F)N1CCN(Cc2ccc(C(F)(F)F)cc2N2CC[C@H](CF)C2)CC1 [Example 54, 1,1,1,3,3,3-hexafluoropropan-2-yl (S)-4-(2-(3-(fluoromethyl)pyrrolidin-1-yl)-4-(trifluoromethyl)benzyl)piperazine-1-carboxylate]	> 75%	< 100 nM	< 25%	> 1000 nM	< 25%	> 1000 nM	> 75%	< 25%	< 25%
O=C(OC(C(F)(F)F)C(F)(F)F)N1CCN(Cc2cccc(Cl)c2N2CC[C@H](CF)C2)CC1 [Example 55, 1,1,1,3,3,3-hexafluoropropan-2-yl (S)-4-(3-chloro-2-(3-(fluoromethyl)pyrrolidin-1-yl)benzyl)piperazine-1-carboxylate]	> 75%	< 100 nM	< 25%	> 1000 nM	< 25%	> 1000 nM	> 75%	< 25%	< 25%
Cc1cccc(CN2CCN(C(=O)OC(C(F)(F)F)C(F)(F)F)CC2)c1N1CC[C@H](CF)C1 [Example 56, 1,1,1,3,3,3-hexafluoropropan-2-yl (S)-4-(2-(3-(fluoromethyl)pyrrolidin-1-yl)-3-methylbenzyl)piperazine-1-carboxylate]	> 75%	< 100 nM	< 25%	> 1000 nM	< 25%	> 1000 nM	> 75%	< 25%	< 25%
O=C(OC(C(F)(F)F)C(F)(F)F)N1CCN(Cc2cccc(Cl)c2N2CC3CCC(C2)O3)CC1 [Example 57, 1,1,1,3,3,3-hexafluoropropan-2-yl 4-(2-(8-oxa-3-azabicyclo[3.2.1]octan-3-yl)-3-chlorobenzyl)piperazine-1-carboxylate]	> 75%	< 100 nM	< 25%	> 1000 nM	< 25%	> 1000 nM	> 75%	< 25%	< 25%
CS(=O)(=O)N[C@@H]1CCN(c2cc(C(F)(F)F)ccc2CN2CCN(C(=O)OC(C(F)(F)F)C(F)(F)F)CC2)C1 [Example 60, 1,1,1,3,3,3-hexafluoropropan-2-yl (R)-4-(2-(3-(methylsulfonamido)pyrrolidin-1-yl)-4-(trifluoromethyl)benzyl)piperazine-1-carboxylate]	> 75%	< 100 nM	< 25%	> 1000 nM	< 25%	> 1000 nM	> 75%	< 25%	< 25%
CS(=O)(=O)N[C@H]1CCN(c2cc(C(F)(F)F)ccc2CN2CCN(C(=O)OC(C(F)(F)F)C(F)(F)F)CC2)C1 [Example 61, 1,1,1,3,3,3-hexafluoropropan-2-yl (S)-4-(2-(3-(methylsulfonamido)pyrrolidin-1-yl)-4-(trifluoromethyl)benzyl)piperazine-1-carboxylate]	> 75%	< 100 nM	< 25%	> 1000 nM	< 25%	> 1000 nM	> 75%	< 25%	< 25%

Further lines, results first:

inhibition at 1 µM (MAGL [1])	IC50 (MAGL [1])	inhibition at 1 µM (FAAH [2])	IC50 (FAAH [2])	inhibition at 1 µM (ABHD6 [3])	IC50 (ABHD6 [3])	inhibition at 5 mg/kg (MAGL [4])	inhibition at 5 mg/kg (FAAH [5])	inhibition at 5 mg/kg (ABHD6 [6])	SMILES
> 75%	< 100 nM	< 25%	> 1000 nM	25 to 75%	100 to 1000 nM	> 75%	< 25%	< 25%	O=C(OC(C(F)(F)F)C(F)(F)F)N1CCN(Cc2ccc(Cl)cc2N2CC[C@H](N3CCCC3=O)C2)CC1 [Example 42, 1,1,1,3,3,3-hexafluoropropan-2-yl (S)-4-(4-chloro-2-(2-oxo-[1,3′-bipyrrolidin]-1′-yl)benzyl)piperazine-1-carboxylate]
> 75%	< 100 nM	< 25%	> 1000 nM	< 25%	> 1000 nM	< 25%	< 25%	< 25%	O=C(OC(C(F)(F)F)C(F)(F)F)N1CCN(Cc2ccc(Cl)cc2N2CC[C@H](N3CCCCC3=O)C2)CC1 [Example 44, 1,1,1,3,3,3-hexafluoropropan-2-yl (S)-4-(4-chloro-2-(3-(2-oxopiperidin-1-yl)pyrrolidin-1-yl)benzyl)piperazine-1-carboxylate]
> 75%	< 100 nM	< 25%	> 1000 nM	> 75%	100 to 1000 nM	25 to 75%	< 25%	< 25%	O=C(OC(C(F)(F)F)C(F)(F)F)N1CCN(Cc2ccc(Cl)cc2N2CC[C@@H](N3CCCS3(=O)=O)C2)CC1 [Example 45, 1,1,1,3,3,3-hexafluoropropan-2-yl (R)-4-(4-chloro-2-(3-(1,1-dioxidoisothiazolidin-2-yl)pyrrolidin-1-yl)benzyl)piperazine-1-carboxylate]
> 75%	< 100 nM	< 25%	> 1000 nM	< 25%	> 1000 nM	> 75%	< 25%	< 25%	Cc1cccc(CN2CCN(C(=O)OC(C(F)(F)F)C(F)(F)F)CC2)c1N1CCC(NS(C)(=O)=O)CC1 [Example 51, 1,1,1,3,3,3-hexafluoropropan-2-yl 4-(3-methyl-2-(4-(methylsulfonamido)piperidin-1-yl)benzyl)piperazine-1-carboxylate]
> 75%	< 100 nM	< 25%	> 1000 nM	< 25%	> 1000 nM	> 75%	< 25%	< 25%	Cc1ccc(CN2CCN(C(=O)OC(C(F)(F)F)C(F)(F)F)CC2)c(N2CC[C@H](CF)C2)c1 [Example 53, 1,1,1,3,3,3-hexafluoropropan-2-yl (S)-4-(2-(3-(fluoromethyl)pyrrolidin-1-yl)-4-methylbenzyl)piperazine-1-carboxylate]
